Reference: PMC8330742, “New benzothieno[2,3-c]pyridines as non-steroidal CYP17 inhibitors: design, synthesis, anticancer screening, apoptosis induction, and in silico ADME profile studies” (Journal of Enzyme Inhibition and Medicinal Chemistry, 2021)

Tests used:
HCT-15 = experiment: NCI-60 SRB screen; assay type: cell-based, human; conditions: Homo sapiens; single dose 10^−5 M; HCT-15, Colon cancer; read-out: Growth inhibition (%)
OVCAR-8 = experiment: NCI-60 SRB screen; assay type: cell-based, human; conditions: Homo sapiens; single dose 10^−5 M; OVCAR-8, Ovarian cancer; read-out: Growth inhibition (%)
TK-10 = experiment: NCI-60 SRB screen; assay type: cell-based, human; conditions: Homo sapiens; single dose 10^−5 M; TK-10, Renal cancer; read-out: Growth inhibition (%)
COLO 205 = experiment: NCI-60 SRB screen; assay type: cell-based, human; conditions: Homo sapiens; single dose 10^−5 M; COLO 205, Colon cancer; read-out: Growth inhibition (%)
ACHN = experiment: NCI-60 SRB screen; assay type: cell-based; conditions: Homo sapiens, single dose 10^−5 M, Renal cancer, read-out: Growth inhibition (%)
M14 = experiment: NCI-60 SRB screen; assay type: cell-based, human; conditions: Homo sapiens; single dose 10^−5 M; M14, Melanoma; read-out: Growth inhibition (%)
MALME-3M = experiment: NCI-60 SRB screen; assay type: cell-based, human; conditions: Homo sapiens, single dose 10^−5 M, Melanoma, read-out: Growth inhibition (%)
HOP-62 = experiment: NCI-60 SRB screen; assay type: cell-based, human; conditions: Homo sapiens; single dose 10^−5 M; HOP-62, Non-small cell lung carcinoma; read-out: Growth inhibition (%)
UACC-62 = experiment: NCI-60 SRB screen; assay type: cell-based, human; conditions: Homo sapiens; single dose 10^−5 M; UACC-62, Melanoma; read-out: Growth inhibition (%)
OVCAR-4 = experiment: NCI-60 SRB screen; assay type: cell-based, human; conditions: Homo sapiens; single dose 10^−5 M; OVCAR-4, Ovarian cancer; read-out: Growth inhibition (%)
SK-MEL-28 = experiment: NCI-60 SRB screen; assay type: cell-based; conditions: Homo sapiens; single dose 10^−5 M; SK-MEL-28, Melanoma; read-out: Growth inhibition (%)
HOP-92 = experiment: NCI-60 SRB screen; assay type: cell-based, human; conditions: Homo sapiens; single dose 10^−5 M; HOP-92, Non-small cell lung carcinoma; read-out: Growth inhibition (%)
SN12C = experiment: NCI-60 SRB screen; assay type: cell-based, human; conditions: Homo sapiens, SN12C; single dose 10^−5 M; SN 12 C, Renal cancer; read-out: Growth inhibition (%)
NCI-H23 = experiment: NCI-60 SRB screen; assay type: cell-based, human; conditions: Homo sapiens; single dose 10^−5 M; NCI-H23, Non-small cell lung carcinoma; read-out: Growth inhibition (%)
SK-MEL-5 = experiment: NCI-60 SRB screen; assay type: cell-based, human; conditions: Homo sapiens; single dose 10^−5 M; SK-MEL-5, Melanoma; read-out: Growth inhibition (%)
SK-MEL-2 = experiment: NCI-60 SRB screen; assay type: cell-based, human; conditions: Homo sapiens; single dose 10^−5 M; SK-MEL-2, Melanoma; read-out: Growth inhibition (%)
OVCAR-3 = experiment: NCI-60 SRB screen; assay type: cell-based, human; conditions: Homo sapiens; single dose 10^−5 M; OVCAR-3, Ovarian cancer; read-out: Growth inhibition (%)
SW-620 = experiment: NCI-60 SRB screen; assay type: cell-based; conditions: Homo sapiens; single dose 10^−5 M; SW-620, Colon cancer; read-out: Growth inhibition (%)
[1] = tested on: panel of 60 cancer cell lines; experiment: NCI-60 SRB screen, mean or range over the panel; assay type: cell-based, human; conditions: Homo sapiens; mean over the cell lines; single dose 10^−5 M; read-out: Mean growth inhibition (%)
NCI/ADR-RES = experiment: NCI-60 SRB screen; assay type: cell-based, human; conditions: Homo sapiens, single dose 10^−5 M, Ovarian cancer, read-out: Growth inhibition (%)
NCI-H322M = experiment: NCI-60 SRB screen; assay type: cell-based, human; conditions: Homo sapiens, single dose 10^−5 M, Non-small cell lung carcinoma, read-out: Growth inhibition (%)
HCC-2998 = experiment: NCI-60 SRB screen; assay type: cell-based, human; conditions: Homo sapiens; single dose 10^−5 M; HCC-2998, Colon cancer; read-out: Growth inhibition (%)
NCI-H226 = experiment: NCI-60 SRB screen; assay type: cell-based, human; conditions: Homo sapiens; single dose 10^−5 M; NCI-H226, Non-small cell lung carcinoma; read-out: Growth inhibition (%)
SR = experiment: NCI-60 SRB screen; assay type: cell-based; conditions: Homo sapiens, single dose 10^−5 M, Leukaemia, read-out: Growth inhibition (%)
HL-60(TB) = experiment: NCI-60 SRB screen; assay type: cell-based, human; conditions: Homo sapiens; single dose 10^−5 M; HL-60(TB), Leukaemia; read-out: Growth inhibition (%)
SK-OV-3 = experiment: NCI-60 SRB screen; assay type: cell-based, human; conditions: Homo sapiens; single dose 10^−5 M; SK-OV-3, Ovarian cancer; read-out: Growth inhibition (%)
A549/ATCC = experiment: NCI-60 SRB screen; assay type: cell-based, human; conditions: Homo sapiens, single dose 10^−5 M, Non-small cell lung carcinoma, read-out: Growth inhibition (%)
CAKI-1 = experiment: NCI-60 SRB screen; assay type: cell-based, human; conditions: Homo sapiens; single dose 10^−5 M; CAKI-1, Renal cancer; read-out: Growth inhibition (%)
LOX IMVI = experiment: NCI-60 SRB screen; assay type: cell-based, human; conditions: Homo sapiens, single dose 10^−5 M, Melanoma, read-out: Growth inhibition (%)
IGROV1 = experiment: NCI-60 SRB screen; assay type: cell-based, human; conditions: Homo sapiens, IGROV-1; single dose 10^−5 M; IGROV1, Ovarian cancer; read-out: Growth inhibition (%)
HT-29 = experiment: NCI-60 SRB screen; assay type: cell-based; conditions: Homo sapiens; single dose 10^−5 M; HT-29, Colon cancer; read-out: Growth inhibition (%)
EKVX = experiment: NCI-60 SRB screen; assay type: cell-based, human; conditions: Homo sapiens, single dose 10^−5 M, Non-small cell lung carcinoma, read-out: Growth inhibition (%)
SF-295 = experiment: NCI-60 SRB screen; assay type: cell-based, human; conditions: Homo sapiens; single dose 10^−5 M; SF-295, CNS cancer; read-out: Growth inhibition (%)
CCRF-CEM = experiment: NCI-60 SRB screen; assay type: cell-based; conditions: Homo sapiens, single dose 10^−5 M, Leukaemia, read-out: Growth inhibition (%)
KM12 = experiment: NCI-60 SRB screen; assay type: cell-based, human; conditions: Homo sapiens; single dose 10^−5 M; KM12, Colon cancer; read-out: Growth inhibition (%)
K-562 = experiment: NCI-60 SRB screen; assay type: cell-based, human; conditions: Homo sapiens, K562; single dose 10^−5 M; K-562, Leukaemia; read-out: Growth inhibition (%)
MDA-MB-435 = experiment: NCI-60 SRB screen; assay type: cell-based; conditions: Homo sapiens, MDA-MB-435, read-out: Growth inhibition (%)
MOLT-4 = experiment: NCI-60 SRB screen; assay type: cell-based; conditions: Homo sapiens; single dose 10^−5 M; MOLT-4, Leukaemia; read-out: Growth inhibition (%)
NCI-H522 = experiment: NCI-60 SRB screen; assay type: cell-based, human; conditions: Homo sapiens; single dose 10^−5 M; NCI-H522, Non-small cell lung carcinoma; read-out: Growth inhibition (%)
NCI-H460 = experiment: NCI-60 SRB screen; assay type: cell-based, human; conditions: Homo sapiens; single dose 10^−5 M; NCI-H460, Non-small cell lung carcinoma; read-out: Growth inhibition (%)
UO-31 = experiment: NCI-60 SRB screen; assay type: cell-based, human; conditions: Homo sapiens; single dose 10^−5 M; UO-31, Renal cancer; read-out: Growth inhibition (%)
RXF 393 = experiment: NCI-60 SRB screen; assay type: cell-based, human; conditions: Homo sapiens; single dose 10^−5 M; RXF 393, Renal cancer; read-out: Growth inhibition (%)
SF-268 = experiment: NCI-60 SRB screen; assay type: cell-based, human; conditions: Homo sapiens; single dose 10^−5 M; SF-268, CNS cancer; read-out: Growth inhibition (%)
HCT-116 = experiment: NCI-60 SRB screen; assay type: cell-based, human; conditions: Homo sapiens; single dose 10^−5 M; HCT-116, Colon cancer; read-out: Growth inhibition (%)

CCN1CCN(C2=C(C#N)c3c(sc4c(F)cccc34)C(c3cccc([N+](=O)[O-])c3)N2)CC1 (stereo not shown) [Compound 8d, 4-Cyano-3-(4-ethylpiperazin-1-yl)-8-fluoro-1-(3-nitrophenyl)-1,2-dihydro [1]benzothieno[2,3-c]pyridine]
inhibition at 10 µM (HCT-15): -6.34%
inhibition at 10 µM (OVCAR-8): -1.56%
inhibition at 10 µM (TK-10): -37%
inhibition at 10 µM (COLO 205): -5.97%
inhibition at 10 µM (ACHN): 9.28%
inhibition at 10 µM (M14): 4.65%
inhibition at 10 µM (MALME-3M): -7.54%
inhibition at 10 µM (HOP-62): 16.1%
inhibition at 10 µM (UACC-62): 6.81%
inhibition at 10 µM (OVCAR-4): -0.52%
inhibition at 10 µM (SK-MEL-28): -15.8%
inhibition at 10 µM (HOP-92): 18.9%
inhibition at 10 µM (SN12C): 1.95%
inhibition at 10 µM (NCI-H23): 3.9%
inhibition at 10 µM (SK-MEL-5): -10.7%
inhibition at 10 µM (SK-MEL-2): 1.77%
inhibition at 10 µM (OVCAR-3): -2.65%
inhibition at 10 µM (SW-620): 3.43%
inhibition at 10 µM [1]: 1.33%
inhibition at 10 µM (NCI/ADR-RES): -4.88%
inhibition at 10 µM (NCI-H322M): 1.85%
inhibition at 10 µM (HCC-2998): -12.2%
inhibition at 10 µM (NCI-H226): 15.7%
inhibition at 10 µM (SR): 11.8%
inhibition at 10 µM (HL-60(TB)): -15.6%
inhibition at 10 µM (SK-OV-3): 11.5%
inhibition at 10 µM (A549/ATCC): -2.72%
inhibition at 10 µM (CAKI-1): 25.2%
inhibition at 10 µM (LOX IMVI): 4.73%
inhibition at 10 µM (IGROV1): 23.7%
inhibition at 10 µM (HT-29): -4.51%
inhibition at 10 µM (EKVX): 12.5%
inhibition at 10 µM (SF-295): -1.19%
inhibition at 10 µM (CCRF-CEM): -0.37%
inhibition at 10 µM (KM12): -0.49%
inhibition at 10 µM (K-562): 4.11%
inhibition at 10 µM (MDA-MB-435): -7.84%
inhibition at 10 µM (MOLT-4): 8.62%
inhibition at 10 µM (NCI-H522): 4.68%
inhibition at 10 µM (NCI-H460): -1.12%
inhibition at 10 µM (UO-31): 33.5%
inhibition at 10 µM (RXF 393): -3.67%
inhibition at 10 µM (SF-268): 4.87%
inhibition at 10 µM (HCT-116): 1.31%

N#CC1=C(N2CCOCC2)NC(c2cccc([N+](=O)[O-])c2)c2sc3c(F)cccc3c21 (stereo not shown) [Compound 8e, 4-Cyano-3-(4-morpholino)-8-fluoro-1-(3-nitrophenyl)-1,2-dihydro [1]benzothieno[2,3-c]pyridine]
inhibition at 10 µM (HCT-15): -6.78%
inhibition at 10 µM (OVCAR-8): 4.28%
inhibition at 10 µM (TK-10): -59.3%
inhibition at 10 µM (COLO 205): -17.4%
inhibition at 10 µM (ACHN): 11.9%
inhibition at 10 µM (M14): -1.97%
inhibition at 10 µM (MALME-3M): -7.29%
inhibition at 10 µM (HOP-62): 18%
inhibition at 10 µM (UACC-62): 6.7%
inhibition at 10 µM (OVCAR-4): -2.02%
inhibition at 10 µM (SK-MEL-28): -10.6%
inhibition at 10 µM (HOP-92): 11.8%
inhibition at 10 µM (SN12C): 6.28%
inhibition at 10 µM (NCI-H23): 2.35%
inhibition at 10 µM (SK-MEL-5): -14.6%
inhibition at 10 µM (SK-MEL-2): 0.38%
inhibition at 10 µM (OVCAR-3): 0.17%
inhibition at 10 µM (SW-620): 5.32%
inhibition at 10 µM [1]: 1.3%
inhibition at 10 µM (NCI/ADR-RES): -0.28%
inhibition at 10 µM (NCI-H322M): 3.9%
inhibition at 10 µM (HCC-2998): -8.91%
inhibition at 10 µM (NCI-H226): 10.4%
inhibition at 10 µM (SR): 9.91%
inhibition at 10 µM (HL-60(TB)): -16.5%
inhibition at 10 µM (SK-OV-3): 7.67%
inhibition at 10 µM (A549/ATCC): 0.1%
inhibition at 10 µM (CAKI-1): 27.4%
inhibition at 10 µM (LOX IMVI): 3.9%
inhibition at 10 µM (IGROV1): 25.4%
inhibition at 10 µM (HT-29): -5.64%
inhibition at 10 µM (EKVX): 9.9%
inhibition at 10 µM (SF-295): -6.46%
inhibition at 10 µM (CCRF-CEM): 6.67%
inhibition at 10 µM (KM12): 0.52%
inhibition at 10 µM (K-562): 9.66%
inhibition at 10 µM (MDA-MB-435): -7.7%
inhibition at 10 µM (MOLT-4): 5.54%
inhibition at 10 µM (NCI-H522): 8.18%
inhibition at 10 µM (NCI-H460): 2.61%
inhibition at 10 µM (UO-31): 38.4%
inhibition at 10 µM (RXF 393): -2.93%
inhibition at 10 µM (SF-268): 7.51%
inhibition at 10 µM (HCT-116): 8.86%
